Measured values: patent US11186564B2, “Dual NAV1.2/5HT2a inhibitors for treating CNS disorders” (Sunovion Pharmaceuticals Inc., priority 2016, dated 2021)
Counter-ions that a name gives are not always drawn. Like-named read-outs stand apart in the source and are kept apart here.

How the values were obtained:
[1] = target: T1, recombinant human serotonin receptor 5-HT2A (Homo sapiens, UniProt P28223); experiment: 5-HT2A antagonist Ca2+ assay in CHO-K1 cells (method A aequorin luminescence / method B FLIPR fluorescence); format: cell-based; conditions: antagonist mode vs EC80 of reference agonist, method A or B
T1 construct: expressed in transfected cells; method B: loaded with Ca2+ dye
In short: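 Method A: CHO-K1 cells co-expressing human 5-HT2A and mitochondrial apoaequorin were given reference agonist at EC80 15 min after compound, with luminescence read. Method B: dye-loaded 5-HT2A CHO-K1 cells were pretreated with compound, then given serotonin at EC80, with FLIPR fluorescence read. IC50s came from nonlinear fits of percent inhibition.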

[2] = target: human sodium channel NaV1.2 (Homo sapiens, UniProt Q99250); experiment: NaV1.2 inhibition, automated patch-clamp (Q-Patch HTX), slow inactivated state (state C); format: cell-based; conditions: for inhibition at 10 µM: read-out: NaV1.2 (% inh), 10 μM; for IC50: read-out: NaV1.2 IC50; for inhibition at 1 µM: 1 μM compound, read-out: NaV1.2 (% inh), 1 μM
In short: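 CHO K-1 cells stably expressing human NaV1.2, whole-cell automated patch clamp, holding −100 mV; slow-inactivated state (state C) read at a 5 ms step to 0 mV after 10 s at −50 mV and 15 ms at −90 mV. Percent inhibition vs vehicle; IC50 by nonlinear least-squares fit.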

[3] = 10 μM compound, hNaV1.2 CHO cells, slow inactivated state
[4] = hNaV1.2 CHO cells, slow inactivated state

Chain of human sodium channel NaV1.2 (Q99250 whole entry): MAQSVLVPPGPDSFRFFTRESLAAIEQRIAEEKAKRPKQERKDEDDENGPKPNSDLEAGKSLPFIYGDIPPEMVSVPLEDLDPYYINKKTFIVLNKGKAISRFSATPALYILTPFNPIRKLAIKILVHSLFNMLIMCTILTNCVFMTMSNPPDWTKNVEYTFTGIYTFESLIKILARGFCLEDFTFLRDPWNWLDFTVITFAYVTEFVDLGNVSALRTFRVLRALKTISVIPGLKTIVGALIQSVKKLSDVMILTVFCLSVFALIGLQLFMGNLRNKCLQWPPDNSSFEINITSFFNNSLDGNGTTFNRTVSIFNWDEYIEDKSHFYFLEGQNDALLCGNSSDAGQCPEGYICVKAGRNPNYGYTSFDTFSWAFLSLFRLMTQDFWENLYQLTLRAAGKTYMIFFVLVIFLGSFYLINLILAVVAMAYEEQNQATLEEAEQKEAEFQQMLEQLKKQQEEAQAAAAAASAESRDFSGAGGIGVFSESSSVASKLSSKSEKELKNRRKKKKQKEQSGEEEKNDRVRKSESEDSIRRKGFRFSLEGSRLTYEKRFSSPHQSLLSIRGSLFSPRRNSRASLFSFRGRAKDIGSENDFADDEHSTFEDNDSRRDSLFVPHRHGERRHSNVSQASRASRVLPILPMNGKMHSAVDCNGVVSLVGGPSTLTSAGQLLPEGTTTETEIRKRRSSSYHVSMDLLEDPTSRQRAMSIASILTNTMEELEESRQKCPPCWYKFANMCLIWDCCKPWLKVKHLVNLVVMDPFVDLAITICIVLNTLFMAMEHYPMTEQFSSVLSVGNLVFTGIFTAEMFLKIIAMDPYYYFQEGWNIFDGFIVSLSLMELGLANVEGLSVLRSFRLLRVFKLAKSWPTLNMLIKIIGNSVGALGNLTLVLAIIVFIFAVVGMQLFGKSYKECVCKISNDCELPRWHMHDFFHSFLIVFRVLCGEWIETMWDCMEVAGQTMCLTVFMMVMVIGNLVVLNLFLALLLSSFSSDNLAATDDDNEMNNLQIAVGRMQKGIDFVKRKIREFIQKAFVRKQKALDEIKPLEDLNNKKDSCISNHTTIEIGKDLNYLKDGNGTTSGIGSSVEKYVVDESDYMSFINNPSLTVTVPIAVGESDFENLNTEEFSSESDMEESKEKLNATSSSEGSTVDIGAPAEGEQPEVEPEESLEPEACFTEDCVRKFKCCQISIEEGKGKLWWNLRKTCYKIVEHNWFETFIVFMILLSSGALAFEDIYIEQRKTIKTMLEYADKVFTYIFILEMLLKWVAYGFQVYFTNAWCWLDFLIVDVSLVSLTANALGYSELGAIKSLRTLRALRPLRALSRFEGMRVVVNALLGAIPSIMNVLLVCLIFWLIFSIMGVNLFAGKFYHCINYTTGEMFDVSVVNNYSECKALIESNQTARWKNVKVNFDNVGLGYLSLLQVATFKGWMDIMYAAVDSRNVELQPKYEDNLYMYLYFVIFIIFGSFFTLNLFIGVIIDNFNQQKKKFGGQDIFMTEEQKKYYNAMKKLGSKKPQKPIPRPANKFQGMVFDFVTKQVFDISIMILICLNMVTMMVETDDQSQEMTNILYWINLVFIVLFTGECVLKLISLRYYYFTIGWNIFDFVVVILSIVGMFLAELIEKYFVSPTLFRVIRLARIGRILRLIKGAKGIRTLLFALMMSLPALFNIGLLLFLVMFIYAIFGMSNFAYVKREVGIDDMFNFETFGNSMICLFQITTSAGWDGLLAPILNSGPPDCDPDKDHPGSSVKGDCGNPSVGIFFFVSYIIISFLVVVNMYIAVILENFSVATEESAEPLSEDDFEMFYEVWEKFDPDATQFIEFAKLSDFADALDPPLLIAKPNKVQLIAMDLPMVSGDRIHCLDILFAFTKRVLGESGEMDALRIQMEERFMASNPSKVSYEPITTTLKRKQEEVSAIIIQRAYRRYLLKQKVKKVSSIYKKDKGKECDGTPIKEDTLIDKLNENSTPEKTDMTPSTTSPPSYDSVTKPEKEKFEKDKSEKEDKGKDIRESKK
T1 sequence (P28223 whole entry): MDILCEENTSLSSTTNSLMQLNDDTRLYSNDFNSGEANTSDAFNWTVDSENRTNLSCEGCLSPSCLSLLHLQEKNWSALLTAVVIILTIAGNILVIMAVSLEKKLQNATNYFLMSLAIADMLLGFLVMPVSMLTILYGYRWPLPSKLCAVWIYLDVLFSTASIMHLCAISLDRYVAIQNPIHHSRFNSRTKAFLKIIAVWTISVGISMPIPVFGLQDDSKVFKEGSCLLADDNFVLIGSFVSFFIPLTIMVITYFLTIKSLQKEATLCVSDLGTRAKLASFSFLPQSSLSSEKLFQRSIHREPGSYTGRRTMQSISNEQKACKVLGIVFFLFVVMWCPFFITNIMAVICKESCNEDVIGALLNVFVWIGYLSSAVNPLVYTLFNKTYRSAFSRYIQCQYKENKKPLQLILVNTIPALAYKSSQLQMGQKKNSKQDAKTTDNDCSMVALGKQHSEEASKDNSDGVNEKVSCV

Row | inhibition at 1 µM [2, 4] | SMILES | IC50 ([1]; read-out: 5HT2A IC50) | IC50 [2, 4] | other results
1 | – | OC(COC1CCCCC1)CN1CCC2(CC1)OCc1ccccc12 (stereo not drawn) [Example 393, 1′-(cyclohexyloxy)-3-(3H-spiro[isobenzofuran-1,4′-piperidin]-1′-yl)propan-2-ol] | – | – | IC50 ([1]; 5HT2A IC50, μM): 1.8 µM; inhibition at 10 µM ([2]; CHO): 93%
2 | – | OC(CO[C@@H]1CCc2ccccc21)CN1CC[C@H](Oc2ccc(F)cc2)C1 (stereo partly drawn) [Example 45, 1-(((R)-2,3-dihydro-1H-inden-1-yl)oxy)-3-((S)-3-(4-fluorophenoxy)pyrrolidin-1-yl)propan-2-ol] | 0.61 µM | – | inhibition at 10 µM [2, 3]: 85%
3 | – | N#Cc1ccc2c(c1)CCC2CN1CCC(Oc2ccc(F)cc2)CC1 (stereo not drawn) [Example 121] | 0.07 µM | 2.09 µM | –
4 | – | OC(COC1CCCCC1)CN1CCC2(CCN(c3ccccc3)CC2)C1 (stereo not drawn) [Example 350, 1-(cyclohexyloxy)-3-(8-phenyl-2,8-diazaspiro[4.5]decan-2-yl)propan-2-ol] | 0.61 µM | 1.68 µM | –
5 | – | COc1ccccc1N1CCN(CC(O)COc2cccc3ccccc23)CC1 (stereo not drawn) [Example 92, 1-(4-(2-methoxyphenyl)piperazin-1-yl)-3-(naphthalen-1-yloxy)propan-2-ol] | 0.23 µM | 0.01 µM | –
6 | – | O=C1CCC(c2ccc(F)cc2)=NN1CN1CCN(c2cccc(Cl)c2)CC1 [Example 62, 2-((4-(3-chlorophenyl)piperazin-1-yl)methyl)-6-(4-fluorophenyl)-4,5-dihydropyridazin-3(2H)-one] | 0.05 µM | 5.27 µM | –
7 | 11% | O=C1Nc2ccccc2CC12CCN(C[C@@H](O)COc1ccccc1)CC2 [Example 446, (R)-1-(2-hydroxy-3-phenoxypropyl)-1′,4′-dihydro-2′H-spiro[piperidine-4,3′-quinolin]-2′-one] | 0.61 µM | – | –
8 | 32% | Fc1ccc(OC2CCN(CC3COCc4ccccc43)CC2)cc1 (stereo not drawn) [Example 160, 4-(4-fluorophenoxy)-1-(isochroman-4-ylmethyl)piperidine] | 0.13 µM | – | –
9 | – | O=C1c2ccccc2CCN1CCN1CCC(Oc2ccc(F)cc2)CC1 [Example 200, 2-(2-(4-(4-fluorophenoxy)piperidin-1-yl)ethyl)-3,4-dihydroisoquinolin-1(2H)-one] | 0.01 µM | – | inhibition at 10 µM [2, 3]: 73%
10 | – | O[C@H](COC1CCCCC1)CN1CCC2(CCN(c3ccccc3)C2)C1 (stereo partly drawn) [Example 345, (2S)-1-(cyclohexyloxy)-3-(7-phenyl-2,7-diazaspiro[4.4]nonan-2-yl)propan-2-ol] | 0.24 µM | 1.9 µM | –
11 | – | OC(CO[C@@H]1CCc2ccccc21)CN1CC[C@@H](Oc2cccc(F)c2)C1 (stereo partly drawn) [Example 36, 1-(((R)-2,3-dihydro-1H-inden-1-yl)oxy)-3-((R)-3-(3-fluorophenoxy)pyrrolidin-1-yl)propan-2-ol] | 1.76 µM | 0.25 µM | –
12 | – | Cc1ccc(N2CCN(C[C@H](O)COC3CCCCC3)CC2)cc1 [Example 77, (S)-1-(cyclohexyloxy)-3-(4-(p-tolyl)piperazin-1-yl)propan-2-ol] | 0.21 µM | 9.02 µM | –
13 | 29% | c1ccc2c(c1)CCC1(CCN(CCC3COCc4ccccc43)CC1)O2 (stereo not drawn) [Example 421, 1′-(2-(isochroman-4-yl)ethyl)spiro[chromane-2,4′-piperidine]] | 0.13 µM | – | –
14 | 9% | OC1(c2ccccc2)COC2(CCN(CC3CCc4ccccc43)CC2)C1 (stereo not drawn) [Example 374, 8-((2,3-dihydro-1H-inden-1-yl)methyl)-3-phenyl-1-oxa-8-azaspiro[4.5]decan-3-ol] | 0.25 µM | – | –
15 | 31% | COc1ccc2c(c1)C(CN1CC3CC(C1)N(c1ccccc1)C3)CC2 (stereo not drawn) [Example 328, 3-((6-methoxy-2,3-dihydro-1H-inden-1-yl)methyl)-6-phenyl-3,6-diazabicyclo[3.2.1]octane] | 5.31 µM | – | –
16 | 23% | c1ccc(CC2CN(CC3CCc4ccccc43)CCO2)cc1 (stereo not drawn) [Example 251, 2-benzyl-4-((2,3-dihydro-1H-inden-1-yl)methyl)morpholine] | 0.37 µM | – | –

Row | inhibition at 1 µM [2, 4] | SMILES | IC50 ([1]; read-out: 5HT2A IC50) | IC50 [2, 4] | other results
17 | – | O=C1c2ccccc2CCN1CCN1CCC(Oc2cccc(Cl)c2)CC1 [Example 194, 2-(2-(4-(3-chlorophenoxy)piperidin-1-yl)ethyl)-3,4-dihydroisoquinolin-1(2H)-one] | 0.11 µM | 0.23 µM | –
18 | 4% | O=C1c2ccccc2CCN1CCN1C[C@@H]2C[C@H]1CN2c1ccccc1 [Example 304, 2-(2-((1S,4S)-5-phenyl-2,5-diazabicyclo[2.2.1]heptan-2-yl)ethyl)-3,4-dihydroisoquinolin-1(2H)-one] | 7.05 µM | – | –
19 | 29% | c1ccc2c(c1)CCC1(CCN(CC3CCc4ccccc43)C1)O2 (stereo not drawn) [Example 387, 1′-((2,3-dihydro-1H-inden-1-yl)methyl)spiro[chromane-2,3′-pyrrolidine]] | 0.03 µM | – | –
20 | – | Fc1ccc(OC2CCN(CCC3CCc4cccnc43)CC2)cc1 (stereo not drawn) [Example 175, 7-(2-(4-(4-fluorophenoxy)piperidin-1-yl)ethyl)-6,7-dihydro-5H-cyclopenta[b]pyridine] | 0.01 µM | 0.44 µM | –
21 | – | Fc1ccc(O[C@H]2CCN(CC3COCc4ccccc43)C2)cc1 (stereo partly drawn) [Example 12, (3S)-3-(4-fluorophenoxy)-1-(isochroman-4-ylmethyl)pyrrolidine] | 0.3 µM | 3.23 µM | –
22 | – | OC(COC1CCCCC1)CN1[C@@H]2C[C@H]1CN(c1ccccc1)C2 (stereo partly drawn) [Example 281, 1-(cyclohexyloxy)-3-((1R,5S)-3-phenyl-3,6-diazabicyclo[3.1.1]heptan-6-yl)propan-2-ol] | 1.36 µM | 1.79 µM | –
23 | 0% | c1ccc2c(c1)CCC1(CCN(CCC3Cc4ccncc4C3)CC1)O2 (stereo not drawn) [Example 420, 1′-(2-(6,7-dihydro-5H-cyclopenta[c]pyridin-6-yl)ethyl)spiro[chromane-2,4′-piperidine]] | 0.25 µM | – | –
24 | – | O[C@@H](COC1CCCCC1)CN1CCC2(CCc3ccccc3O2)CC1 [Example 438, (R)-1-(cyclohexyloxy)-3-(spiro[chromane-2,4′-piperidin]-1′-yl)propan-2-ol] | 0.15 µM | 1.31 µM | –
25 | 18% | c1ccc2c(c1)CCC2CN1CCC2(CCc3ccncc3O2)CC1 (stereo not drawn) [Example 405, 1-((2,3-dihydro-1H-inden-1-yl)methyl)-3′,4′-dihydrospiro[piperidine-4,2′-pyrano[2,3-c]pyridine]] | 0.18 µM | – | –
26 | – | c1ccc(C2COC3(CCN(CC4CCc5ccccc54)CC3)C2)cc1 (single isomer, unassigned) [Example 375, 8-((2,3-dihydro-1H-inden-1-yl)methyl)-3-phenyl-1-oxa-8-azaspiro[4,5]decane] | 0.26 µM | 0.35 µM | –
27 | – | Cc1cccc(N2CCN(CC(O)COC3(C)COc4ccccc43)CC2)c1C (stereo not drawn) [Example 81, 1-(4-(2,3-dimethylphenyl)piperazin-1-yl)-3-((3-methyl-2,3-dihydrobenzofuran-3-yl)oxy)propan-2-ol] | 0.03 µM | 0.16 µM | –
28 | – | COc1ccccc1OC1CCC2(CCN(CC3CCc4cccnc43)C2)C1 (stereo not drawn) [Example 373, 2-((6,7-dihydro-5H-cyclopenta[b]pyridin-7-yl)methyl)-7-(2-methoxyphenoxy)-2-azaspiro[4.4]nonane] | 0.44 µM | 2.42 µM | –
29 | – | Fc1ccc(OC2CCN(CC3Cc4cccnc4C3)CC2)cc1 (stereo not drawn) [Example 155, 6-((4-(4-fluorophenoxy)piperidin-1-yl)methyl)-6,7-dihydro-5H-cyclopenta[b]pyridine dihydrochloride] | 0.04 µM | 1 µM | –
30 | 14% | O=C1c2ccccc2CN1CCN1CCC(Oc2ccc(F)cc2)CC1 [Example 187, 2-(2-(4-(4-fluorophenoxy)piperidin-1-yl)ethyl)isoindolin-1-one] | 0.07 µM | – | –
31 | 10% | N#Cc1ccccc1OC1CCN(CC2Cc3cccnc3C2)CC1 (stereo not drawn) [Example 138, 2-((1-((6,7-dihydro-5H-cyclopenta[b]pyridin-6-yl)methyl)piperidin-4-yl)oxy) benzonitrile] | 0.13 µM | – | –
32 | – | COc1ccc2c(c1)CCCN(CCN1CCC(Oc3ccc(F)cc3)CC1)C2=O [Example 212, 2-(2-(4-(4-fluorophenoxy)piperidin-1-yl)ethyl)-7-methoxy-2,3,4,5-tetrahydro-1H-benzo[c]azepin-1-one] | 0.01 µM | – | inhibition at 10 µM [2, 3]: 48%

Row | SMILES | inhibition at 1 µM [2, 4] | IC50 ([1]; read-out: 5HT2A IC50) | IC50 [2, 4] | other results
33 | Fc1ccc(O[C@@H]2CCN(CC3COCc4ccccc43)C2)cc1 (stereo partly drawn) [Example 11, (3R)-3-(4-fluorophenoxy)-1-(isochroman-4-ylmethyl)pyrrolidine] | 29% | 0.59 µM | – | –
34 | Fc1ccc(O[C@@H]2CCCN(CC3CCc4ccccc43)C2)cc1 (stereo partly drawn) [Example 253, (3R)-1-((2,3-dihydro-1H-inden-1-yl)methyl)-3-(4-fluorophenoxy) piperidine] | 21% | 1.17 µM | – | –
35 | O[C@H](COc1ccccc1)CN1CCC2(CCc3ccccc3O2)CC1 [Example 440, (S)-1-phenoxy-3-(spiro[chromane-2,4′-piperidin]-1′-yl)propan-2-ol] | -8% | 0.08 µM | – | –
36 | c1ccc(N2[C@@H]3CC[C@H]2CN(CC2CCc4ccccc42)C3)cc1 (stereo partly drawn) [Example 295, (1R,5S)-3-((2,3-dihydro-1H-inden-1-yl)methyl)-8-phenyl-3,8-diazabicyclo[3.2.1]octane] | 2% | > 16.7 µM | – | –
